IC50 data for 24 molecules are collected here from patent publication US20260078120A1, “SUBSTITUTED PYRIDOPYRIMIDINONES” (MIRATI THERAPEUTICS, INC., priority 2022, published 2026).

pIC50: −log10 of the molar value.

Experiment [1] has as its system T47D (PI3Kα H1047R mutant) cells. As to the kind of experiment: CellTiter-Glo 2.0 luminescent cell viability assay, 72 hours, T47D cells. The settings on record: Homo sapiens, T47D, 72 h, T47D (PI3Kα H1047R mutant) cells, CellTiter-Glo, approximately 72 hours; read-out: T47D (H1047R mutant) Viability IC50. Format: cell-based. An outline of the steps: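 Viability was measured by CellTiter-Glo 2.0 luminescence after approximately 72 h of compound exposure at 37° C. Plating was 1000 cells per well the day before dosing, with ten 1:4 dilutions from a 10 µM top concentration. Values as percent of vehicle were fitted by variable-slope log(inhibitor) regression to give IC50.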
A general note: Cellular ATP, detected with luciferase, serves as a proxy for viable cell number.

Experiment [2] relates to SKBR3 (PI3Kα wild type) cells. Briefly: CellTiter-Glo 2.0 luminescent cell viability assay, 72 hours, SKBR3 cells. In kind it is cell-based. Particulars: Homo sapiens, SK-BR-3, 72 h, SKBR3 (PI3Kα wild type) cells, CellTiter-Glo, approximately 72 hours; read-out: SKBR3 (WT) Viability IC50. An outline of the steps:
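Viability measured via CTG luminescence following roughly 72 hours of compound exposure at 37° C. Dosing used a 10 um starting concentration diluted 1:4 over 10 points; percent-of-vehicle data fitted with a variable-slope four-parameter model for IC50.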

As usually defined, the pIC50 is the negative decadic logarithm of the IC50, by convention in mol/L. For the molecule `Cc1cc([C@@H](C)Nc2ccccc2C(=O)O)c2nc(NCC3(C(F)(F)F)CC3)c(C#N)c(=O)n2c1` [Example 11-159, (R)-2-((1-(3-cyano-7-methyl-4-oxo-2-(((1-(trifluoromethyl)cyclopropyl)methyl)amino)-4H-pyrido[1,2-a]pyrimidin-9-yl)ethyl)amino)benzoic acid], the negative-log IC50 (pIC50) in experiment [1] was 6.75; in experiment [2], less than 5.00.

Regarding `Cc1cc([C@@H](C)Nc2ccccc2C(=O)O)c2nc(NCC3CCOC3)c(C)c(=O)n2c1` (stereo partly drawn) [Example 11-197, 2-(((1R)-1-(3,7-dimethyl-4-oxo-2-(((tetrahydrofuran-3-yl)methyl)amino)-4H-pyrido[1,2-a]pyrimidin-9-yl)ethyl)amino)benzoic acid], the pIC50 in experiment [1] is 5.89; in experiment [2] it was less than 5.00.

On to `Cc1cc([C@@H](C)Nc2ccccc2C(=O)O)c2nc(N3CCN(c4cn(C)nc4C#N)CC3)c(C)c(=O)n2c1` [Example 11-185, (R)-2-((1-(2-(4-(3-cyano-1-methyl-1H-pyrazol-4-yl)piperazin-1-yl)-3,7-dimethyl-4-oxo-4H-pyrido[1,2-a]pyrimidin-9-yl)ethyl)amino)benzoic acid], for which the negative-log IC50 (pIC50) in experiment [1] is 6.91; in experiment [2], less than 5.00.

As to `Cc1cc([C@@H](C)Nc2ccccc2C(=O)O)c2nc(N3CCC4(CCCO4)CC3)c(C)c(=O)n2c1` [Example 11-63, (R)-2-((1-(3,7-dimethyl-4-oxo-2-(1-oxa-8-azaspiro[4.5]decan-8-yl)-4H-pyrido[1,2-a]pyrimidin-9-yl)ethyl)amino)benzoic acid], the pIC50 in experiment [1] is 6.87; in experiment [2], less than 5.00.

For the molecule `Cc1cc([C@@H](C)Nc2ccccc2C(=O)O)c2nc(N3CCN(c4cccc(C(F)(F)F)c4)CC3)c(C)c(=O)n2c1` [Example 11-439, (R)-2-((1-(3,7-dimethyl-4-oxo-2-(4-(3-(trifluoromethyl)phenyl)piperazin-1-yl)-4H-pyrido[1,2-a]pyrimidin-9-yl)ethyl)amino)benzoic acid], the negative-log IC50 (pIC50) in experiment [1] is 6.62; in experiment [2], less than 5.00.

In the case of `CC(=O)N1CCC(c2nc3c([C@@H](C)Nc4ccccc4C(=O)O)cc(C)cn3c(=O)c2C#N)CC1` [Example 11-256, (R)-2-((1-(2-(1-acetylpiperidin-4-yl)-3-cyano-7-methyl-4-oxo-4H-pyrido[1,2-a]pyrimidin-9-yl)ethyl)amino)benzoic acid], the negative-log IC50 (pIC50) was 6.29 in experiment [1] and less than 5.00 in experiment [2].

For the molecule `Cc1cc([C@@H](C)Nc2ccccc2C(=O)O)c2nc(N3CC4CC5CC4C3C5O)c(C)c(=O)n2c1` (stereo partly drawn) [Example 11-22, 2-(((1R)-1-(2-(6-hydroxyhexahydro-3,5-methanocyclopenta[b]pyrrol-1(2H)-yl)-3,7-dimethyl-4-oxo-4H-pyrido[1,2-a]pyrimidin-9-yl)ethyl)amino)benzoic acid], the pIC50 in experiment [1] is 6.72; in experiment [2] it was less than 5.00.

In the case of `Cc1cc([C@@H](C)Nc2ccc(Cl)nc2C(=O)O)c2nc(N3CCN(c4ccc(C#N)cc4)C[C@@H]3C)c(C#N)c(=O)n2c1` [Example 11-129, 6-chloro-3-(((R)-1-(3-cyano-2-((S)-4-(4-cyanophenyl)-2-methylpiperazin-1-yl)-7-methyl-4-oxo-4H-pyrido[1,2-a]pyrimidin-9-yl)ethyl)amino)picolinic acid], the pIC50 in experiment [1] was 6.02; in experiment [2], less than 5.00.

Regarding `C=C(C#N)CNc1nc2c([C@@H](C)Nc3ccccc3C(=O)O)cc(C)cn2c(=O)c1C` [Example 11-110, (R)-2-((1-(2-((2-cyanoallyl)amino)-3,7-dimethyl-4-oxo-4H-pyrido[1,2-a]pyrimidin-9-yl)ethyl)amino)benzoic acid], the pIC50 was 5.31 in experiment [1] and less than 5.00 in experiment [2].

As for `Cc1cc([C@@H](C)Nc2ccccc2C(=O)O)c2nc(N3CC[C@H]3C(F)(F)F)c(C)c(=O)n2c1` [Example 11-97, 2-(((R)-1-(3,7-dimethyl-4-oxo-2-((S)-2-(trifluoromethyl)azetidin-1-yl)-4H-pyrido[1,2-a]pyrimidin-9-yl)ethyl)amino)benzoic acid], the pIC50 is 6.51 in experiment [1] and less than 5.00 in experiment [2].

On to `Cc1cc([C@@H](C)Nc2ccccc2C(=O)O)c2nc(N3CCN(C(=O)CC4CC4)CC3)c(C)c(=O)n2c1` [Example 10-6, (R)-2-((1-(2-(4-(2-cyclopropylacetyl)piperazin-1-yl)-3,7-dimethyl-4-oxo-4H-pyrido[1,2-a]pyrimidin-9-yl)ethyl)amino)benzoic acid], for which the values for the negative logarithm of the IC50 (pIC50) in experiment [1] and in experiment [2] were 7.82 and less than 5.00, respectively.

Take `Cc1cc([C@@H](C)Nc2ccccc2C(=O)O)c2nc(N3CCN(c4ccc(C(F)(F)F)cc4C#N)CC3C)c(C)c(=O)n2c1` (stereo partly drawn) [Example 11-81, 2-(((1R)-1-(2-(4-(2-cyano-4-(trifluoromethyl)phenyl)-2-methylpiperazin-1-yl)-3,7-dimethyl-4-oxo-4H-pyrido[1,2-a]pyrimidin-9-yl)ethyl)amino)benzoic acid]: the negative-log IC50 (pIC50) is 6.24 in experiment [1] and less than 5.00 in experiment [2].

In the case of `Cc1cc([C@@H](C)Nc2ccccc2C(=O)O)c2nc(N3Cc4ncsc4C3)c(C)c(=O)n2c1` [Example 11-304, (R)-2-((1-(2-(4,6-dihydro-5H-pyrrolo[3,4-d]thiazol-5-yl)-3,7-dimethyl-4-oxo-4H-pyrido[1,2-a]pyrimidin-9-yl)ethyl)amino)benzoic acid], the negative logarithm of the IC50 (pIC50) in experiment [1] is 6.71; in experiment [2] it was less than 5.00.

Take `Cc1cc(N2CCC(C(=O)O)CC2)c2nc(N3CCCCC3)cc(=O)n2c1` [Example 11-347, 1-(7-methyl-4-oxo-2-(piperidin-1-yl)-4H-pyrido[1,2-a]pyrimidin-9-yl)piperidine-4-carboxylic acid]: the negative logarithm of the IC50 (pIC50) in experiment [1] and in experiment [2] was less than 5.00 each time.

For `Cc1cc([C@@H](C)Nc2ccccc2C(=O)O)c2nc(N3CCC4(CC3)CC4)c(C#N)c(=O)n2c1` [Example 11-220, (R)-2-((1-(3-cyano-7-methyl-4-oxo-2-(6-azaspiro[2.5]octan-6-yl)-4H-pyrido[1,2-a]pyrimidin-9-yl)ethyl)amino)benzoic acid], the results for the negative-log IC50 (pIC50) in experiment [1] and in experiment [2] were 6.93 and less than 5.00, respectively.

`Cc1cc([C@@H](C)Nc2ccccc2C(=O)O)c2nc(N3CC4(C3)CC4(F)F)c(C#N)c(=O)n2c1` [Example 11-102, (R)-2-((1-(3-cyano-2-(1,1-difluoro-5-azaspiro[2.3]hexan-5-yl)-7-methyl-4-oxo-4H-pyrido[1,2-a]pyrimidin-9-yl)ethyl)amino)benzoic acid]: the pIC50 in experiment [1] was 6.89; in experiment [2], less than 5.00.

With `Cc1cc([C@@H](C)Nc2ccccc2C(=O)O)c2nc(N3CCN(c4ccc(C(N)=O)cc4)CC3)c(C)c(=O)n2c1` [Example 11-250, (R)-2-((1-(2-(4-(4-carbamoylphenyl)piperazin-1-yl)-3,7-dimethyl-4-oxo-4H-pyrido[1,2-a]pyrimidin-9-yl)ethyl)amino)benzoic acid], the results for the pIC50 in experiment [1] and in experiment [2] were 6.32 and less than 5.00, respectively.

As for `C[C@@H](Nc1ccccc1C(=O)O)c1cc(C(F)F)cn2c(=O)c(C#N)c(N3CCC(F)(F)CC3)nc12` [Example 11-168, (R)-2-((1-(3-cyano-7-(difluoromethyl)-2-(4,4-difluoropiperidin-1-yl)-4-oxo-4H-pyrido[1,2-a]pyrimidin-9-yl)ethyl)amino)benzoic acid], the pIC50 is 6.62 in experiment [1] and less than 5.00 in experiment [2].

For `Cc1cc([C@@H](C)Nc2ccccc2C(=O)O)c2nc(Cl)c(C)c(=O)n2c1` [Example 11-242, (R)-2-((1-(2-chloro-3,7-dimethyl-4-oxo-4H-pyrido[1,2-a]pyrimidin-9-yl)ethyl)amino)benzoic acid], the pIC50 in experiment [1] and in experiment [2] was less than 5.00 each time.

As to `Cc1cc([C@@H](C)Nc2ccccc2C(=O)O)c2nc(NCC3COC3)c(C)c(=O)n2c1` [Example 11-205, (R)-2-((1-(3,7-dimethyl-2-((oxetan-3-ylmethyl)amino)-4-oxo-4H-pyrido[1,2-a]pyrimidin-9-yl)ethyl)amino)benzoic acid], the pIC50 in experiment [1] was 5.81; in experiment [2], less than 5.00.

Consider `Cc1cc([C@@H](C)Nc2ccccc2C(=O)O)c2nc(N[C@H](C)C3CC3)c(C#N)c(=O)n2c1` [Example 11-165, 2-(((R)-1-(3-cyano-2-(((R)-1-cyclopropylethyl)amino)-7-methyl-4-oxo-4H-pyrido[1,2-a]pyrimidin-9-yl)ethyl)amino)benzoic acid], for which the pIC50 was 6.31 in experiment [1] and less than 5.00 in experiment [2].

`C[C@H](Nc1ccccc1C(=O)O)c1cc(C2CC2)cn2c(=O)c(C#N)c(N3Cc4ccccc4C3)nc12` [Example 11-327, (S)-2-((1-(3-cyano-7-cyclopropyl-2-(isoindolin-2-yl)-4-oxo-4H-pyrido[1,2-a]pyrimidin-9-yl)ethyl)amino)benzoic acid]: the values for the negative-log IC50 (pIC50) in experiment [1] and in experiment [2] were 6.84 and 5.00, respectively.

As for `Cc1cc([C@@H](C)Nc2ccccc2C(=O)O)c2nc(N3CCC(F)(F)[C@H](C)C3)c(C#N)c(=O)n2c1` [Example 11-64, 2-(((R)-1-(3-cyano-2-((R)-4,4-difluoro-3-methylpiperidin-1-yl)-7-methyl-4-oxo-4H-pyrido[1,2-a]pyrimidin-9-yl)ethyl)amino)benzoic acid], the pIC50 was 6.88 in experiment [1] and less than 5.00 in experiment [2].

On to `C#Cc1ccc(N[C@H](C)c2cc(C)cn3c(=O)cc(N4CCCCC4)nc23)c(C(=O)O)c1` [Example 11-232, (R)-5-ethynyl-2-((1-(7-methyl-4-oxo-2-(piperidin-1-yl)-4H-pyrido[1,2-a]pyrimidin-9-yl)ethyl)amino)benzoic acid], for which the results for the pIC50 in experiment [1] and in experiment [2] were 5.48 and less than 5.00, respectively.
